# System: 653999-131-R-J2-PDC complex spheroid viability
# Assay: Anticancer human tumor 653999-131-R-J2-PDC patient-derived lung adenocarcinoma cell line growth inhibition
# Settings: for IC50: curve of first compound; for viability, T/C: stronger effect = lower value
# In short: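 Drug combinations with the LSD1 inhibitor iadademstat tested on tumor cells co-cultured as spheroids with endothelial cells and mesenchymal stem cells. Concentrations descended in half-log increments from clinical Cmax or 10 microM.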
# [1] = second compound 0.1 µM, first compound 0.0316 µM
# [2] = second compound 0.1 µM, first compound 0.1 µM
# [3] = second compound 0.1 µM, first compound 0.316 µM
# [4] = second compound 0.1 µM, first compound 1 µM
# [5] = second compound 0.1 µM, first compound 3.16 µM
# [6] = second compound 0.1 µM, first compound 10 µM
# [7] = second compound 0.316 µM, first compound 0.0316 µM
# [8] = second compound 0.316 µM, first compound 0.1 µM
# [9] = second compound 0.316 µM, first compound 0.316 µM
# [10] = second compound 0.316 µM, first compound 1 µM
# [11] = second compound 0.316 µM, first compound 3.16 µM
# [12] = second compound 0.316 µM, first compound 10 µM
# [13] = second compound 1 µM, first compound 0.0316 µM
# [14] = second compound 1 µM, first compound 0.1 µM
# [15] = second compound 1 µM, first compound 0.316 µM
# [16] = second compound 1 µM, first compound 1 µM
# [17] = second compound 1 µM, first compound 3.16 µM
# [18] = second compound 1 µM, first compound 10 µM
# [19] = second compound 3.16 µM, first compound 0.0316 µM
# [20] = second compound 3.16 µM, first compound 0.1 µM
# [21] = second compound 3.16 µM, first compound 0.316 µM
# [22] = second compound 3.16 µM, first compound 1 µM
# [23] = second compound 3.16 µM, first compound 3.16 µM
# [24] = second compound 3.16 µM, first compound 10 µM
# [25] = second compound 10 µM, first compound 0.0316 µM
# [26] = second compound 10 µM, first compound 0.1 µM
# [27] = second compound 10 µM, first compound 0.316 µM
# [28] = second compound 10 µM, first compound 1 µM
# [29] = second compound 10 µM, first compound 3.16 µM
# [30] = second compound 10 µM, first compound 10 µM
# 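Also: spheroids exposed to agents for seven days before readout.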
SMILES,IC50 (second compound 0.1 µM) [nM],IC50 (second compound 0.316 µM) [nM],IC50 (second compound 1 µM) [nM],IC50 (second compound 3.16 µM) [nM],IC50 (second compound 10 µM) [nM],"viability, T/C [1] [%]","viability, T/C [2] [%]","viability, T/C [3] [%]","viability, T/C [4] [%]","viability, T/C [7] [%]","viability, T/C [8] [%]","viability, T/C [9] [%]","viability, T/C [10] [%]","viability, T/C [13] [%]","viability, T/C [14] [%]","viability, T/C [15] [%]","viability, T/C [16] [%]","viability, T/C [19] [%]","viability, T/C [20] [%]","viability, T/C [21] [%]",further results
CC(C)c1c(-c2ccccc2)nc2c(C#N)c[nH]n2c1=O + NC1CCC(NC2CC2c2ccccc2)CC1,> 10000,> 10000,> 10000,> 10000,> 10000,92.5,97.8,91.4,80.6,94.5,89.6,100,82.3,94.2,105,92.8,84.9,85.9,103,84.6,"viability, T/C [5]: 91.8%; viability, T/C [6]: 91.5%; viability, T/C [11]: 85.5%; viability, T/C [12]: 77.5%; viability, T/C [17]: 87.2%; viability, T/C [18]: 85.1%; viability, T/C [22]: 95.1%; viability, T/C [23]: 89%; viability, T/C [24]: 80%; viability, T/C [25]: 91.9%; viability, T/C [26]: 88.1%; viability, T/C [27]: 82.6%; viability, T/C [28]: 78.1%; viability, T/C [29]: 75.5%; viability, T/C [30]: 69.4%"
CC1COCCN1c1cc(-c2ccnn2C)c2ccnc(-c3ccn[nH]3)c2n1 (stereo not given) + NC1CCC(NC2CC2c2ccccc2)CC1,23,21.8,35.3,24.4,31.8,42.8,33,32.3,27.1,48.1,32.3,28.1,27.7,52,35.9,33.9,27.9,44.8,37.3,31.1,"viability, T/C (second compound 0.1 µM, first compound 0.00316 µM): 85.9%; viability, T/C (second compound 0.1 µM, first compound 0.01 µM): 67.7%; viability, T/C (second compound 0.316 µM, first compound 0.00316 µM): 79.6%; viability, T/C (second compound 0.316 µM, first compound 0.01 µM): 59%; viability, T/C (second compound 1 µM, first compound 0.00316 µM): 78.1%; viability, T/C (second compound 1 µM, first compound 0.01 µM): 67.7%; viability, T/C (second compound 3.16 µM, first compound 0.00316 µM): 92.2%; viability, T/C (second compound 3.16 µM, first compound 0.01 µM): 64.1%; viability, T/C [22]: 27.8%; viability, T/C (second compound 10 µM, first compound 0.00316 µM): 84.4%; viability, T/C (second compound 10 µM, first compound 0.01 µM): 68.1%; viability, T/C [25]: 50.9%; viability, T/C [26]: 36.5%; viability, T/C [27]: 33.5%; viability, T/C [28]: 30.1%"
CC1COCCN1c1cc(C2(S(C)(=N)=O)CC2)nc(-c2ccnc3[nH]ccc23)n1 (stereo not given) + NC1CCC(NC2CC2c2ccccc2)CC1,736,832,840,674,698,104,81.3,63.7,46.4,94.1,80.1,73.8,45.5,102,81,67.4,46.3,101,89.4,68.9,"viability, T/C [5]: 32.8%; viability, T/C [6]: 34.1%; viability, T/C [11]: 30%; viability, T/C [12]: 31%; viability, T/C [17]: 34.1%; viability, T/C [18]: 28.2%; viability, T/C [22]: 39.1%; viability, T/C [23]: 33.6%; viability, T/C [24]: 32.3%; viability, T/C [25]: 103%; viability, T/C [26]: 66.4%; viability, T/C [27]: 72.5%; viability, T/C [28]: 43.8%; viability, T/C [29]: 30%; viability, T/C [30]: 27.4%"

# — PubChem BioAssay AID1918939 (Molecular Pharmacology Branch, DTP, NCI, 2023)
